Reference: PMC5354456, “Selective inhibition of RNA polymerase I transcription as a potential approach to treat African trypanosomiasis” (PLoS Neglected Tropical Diseases, 2017)
Entries after “also recorded” stand apart in the source; their conditions may differ.

Experiments:
[1] = test system: bloodstream form Trypanosoma brucei; assay: Alamar Blue in vitro cytotoxicity assay, T. brucei SM; assay type: cell-based; details: for IC50: 72 hour Alamar Blue, mean ± SD, three biological replicates; for T. brucei more sensitive than human cells (selectivity range): compared with MCF10A and BJ3 human cell lines
Method: (§1) For proliferation assays, T. brucei SM was treated with inhibitors, and densities were determined using a Neubauer haemocytometer. Growth curves were repeated minimally in triplicate. For wash-out assays, T. brucei SM was treated with various concentrations of inhibitors. After two hours the cells were washed, resuspended in drug free HMI-9 medium, and cell proliferation was monitored using a haemocytometer. For the Alamar Blue in vitro cytotoxicity assay, 200 μl samples of T. brucei SM cells (2 x 10^3 cells ml^-1) were plated in 96 well plates, and incubated for 72 hours with two fold serial dilutions of the inhibitors. At 72 hours, 20 μl of Resazurin (0.125 mg ml^-1) (Sigma) was added, and the parasites were incubated for a further 18 hours. Fluorescence was measured using a Tecan infinite plate reader (excitation at 530 nm, emission at 585 nm). The change in fluorescence (minus the chemical only control) was plotted as a function of the concentration of chemical compound using the sigmoidal dose-response (variable slope) algorithm using GraphPad Prism version 5.

[2] = test system: Pol I transcription (rDNA and VSG221 ES precursor transcripts); assay: RNA precursor transcript analysis by qRT-PCR; assay type: cell-based, Trypanosoma brucei
Method: RNA transcript analysis was performed using quantitative reverse transcription PCR (qRT-PCR). Total RNA was isolated using the RNeasy kit (Qiagen) and DNase treated with TURBO DNA-free kit (Invitrogen). Reverse transcription was performed using 100 ng RNA as a template for cDNA synthesis using random hexamer primers (Promega) and the Omniscript RT kit (Qiagen). qPCR was performed on the 7500 Fast Real-Time PCR system (Life Technologies) using Brilliant II SYBR Green QPCR Low ROX Master Mix (Agilent Technologies). DNase treated RNA without reverse transcriptase was used as a control. The amplification conditions for each primer pair were optimised, and the primer sequences are listed in S1 Table. Transcript levels were normalised against actin mRNA, and plotted as relative change relative to the zero hour time point.

[3] = test system: MCF10A human breast epithelial cell line; assay: Alamar Blue cytotoxicity assay, MCF10A cells; assay type: cell-based; details: for IC50: 72 hour Alamar Blue, mean ± SD; for T. brucei more sensitive than MCF10A: Alamar Blue IC50s compared; for selectivity index for T. brucei vs MCF10A (Alamar blue): IC50 MCF10A Alamar blue / IC50 T. brucei
Method: (§2) For the mammalian cell toxicity assays, either the spontaneously immortalised Michigan Cancer foundation (MCF10A) human breast epithelial cell line was used, or the BJ3 cell line, which is a human foreskin fibroblast cell line immortalized with the h-Tert catalytic subunit of telomerase. Cells were seeded in 96-well plates, and after 48 hours each well was treated in quintuplicate using ten different concentrations of CX-5461, quarfloxin, BMH-21 or suramin. After incubation for 48 hours, the cells were imaged and cell confluence was calculated using an IncuCyte ZOOM (Essen Biosciences). Cell confluence was normalised to a drug vehicle only control which was set to 100%. An Alamar Blue assay was also performed on the MCF10A cell line in the presence of the different Pol I transcription inhibitors. Here the Alamar Blue readout was also normalised to the vehicle only control. Experiments were performed as three biological replicates with the exception of the Incucyte data for MCF10A in the presence of BMH-21 and doxycycline which were obtained in duplicate. The dose response curves and IC50s were calculated using GraphPad Prism.

[4] = test system: Expression Site Body (ESB) and nucleolus of T. brucei; assay: Immunofluorescence microscopy of ESB, VEX1 foci and nucleolus; assay type: cell-based, Trypanosoma brucei; details: for cells with an ESB / ESB positive cells: one hour, G1 cells, untreated 64 ± 17%
Method: Trypanosomes were fixed in 2% paraformaldehyde, permeabilised with 0.1% NP-40 for 5 minutes at room temperature before incubation for one hour with an antibody against the nucleolar marker L1C6 [47] or anti-myc tag antibody (clone 4A6, EMD Millipore). Slides were subsequently incubated with a goat anti-mouse secondary antibody coupled to Alexa-594 (Molecular Probes), before mounting in Vectashield containing DAPI (Vector Laboratories). Microscopy was performed using a Zeiss Imager.M1 microscope equipped with a Zeiss AxioCam MRm camera and Axio Vision Rel 4.8 software. A Z-stack of images was taken at 200 nm intervals, and the images from the individual channels were processed using Image J software. For quantitation of ESB signal using YFP, VEX1 signal using the anti-myc tag antibody or nucleolar signal using the L1C6 antibody, the exposure time and contrast was uniformly adjusted across all conditions. Quantification of ESB and nucleolar signal was carried out using compressed stacks of all appropriate channels in which the images acquired on the Z-axis were analysed. The ESB and nucleolar status was recorded for a total of approximately 100 cells in G1 (two biological replicates of approximately 50 cells) for each condition.

[5] = test system: BJ3 human foreskin fibroblast cell line; assay: IncuCyte cell confluence assay, BJ3 fibroblasts; assay type: cell-based; details: for IC50: 48 hours IncuCyte, IC50 for cell death, mean ± SD; for selectivity index for T. brucei vs BJ3 human fibroblasts (Incucyte): IC50 BJ3 cell death / IC50 T. brucei
Method: as §2
In parallel, the BJ3 human foreskin fibroblast cell line that had been immortalised with hTert (the catalytic subunit of telomerase) was also tested for sensitivity to these compounds [46] (S2 Fig)(S3 Fig). The IC50 values corresponding to either growth arrest or cell death shown in S2 Fig were obtained by observing the cell images (S3 Fig) and determining the point where the specific dose curve plateaus at the higher concentrations. If the cells were morphologically sound, then the dose curve represented growth arrest of the cells. If the cells were dead, then the dose curve represented cell death. The IC50 values for cell death were used to calculate the selectivity index scores.

T. b. rhodesiense = test system: T. b. rhodesiense; set-up: method as in PMID 20149544; details: similar Alamar Blue assay; read-out: IC50 suramin for T. b. rhodesiense; cited from earlier work
[6] = test system: MCF10A human breast epithelial cell line; assay: IncuCyte cell confluence proliferation assay, MCF10A cells; assay type: cell-based; details: for IC50: 48 hour IncuCyte, mean ± SD; for selectivity index for T. brucei vs MCF10A (Incucyte): IC50 MCF10A Incucyte / IC50 T. brucei
Method: as §2

T. brucei SM [7] = assay: Proliferation assay (growth curves, haemocytometer); assay type: cell-based, Trypanosoma brucei; details: growth over 48 hours
Method: as §1

[8] = test system: T. brucei RPA2 Pol I subunit; assay: Western blot of YFP-RPA2 Pol I subunit; assay type: cell-based, Trypanosoma brucei; details: 3 μM, one hour, T. brucei TY-YFP-RPA2
Method: (A) The T. brucei TY-YFP-RPA2 cell line was incubated with various concentrations of BMH-21 for the time indicated in hours. As a control, T. brucei was also incubated with 800 nM of suramin. Lysate from 1 x 10^7 cell equivalents was blotted and probed with anti-TY (BB2) antibody. A band corresponding to T. brucei RPA2 is shown, as well as a Ponceau S stain of the blot to serve as a loading control. Size markers in kiloDaltons (kDa) are indicated. (TIF) Click here for additional data file.

T. brucei SM [9] = assay: Wash-out assay; assay type: cell-based, Trypanosoma brucei; details: two hours incubation, then wash-out
Method: as §1

SMILES | IC50 ([1]; Trypanosoma brucei) [µM] | IC50 ([3]; Homo sapiens, MCF-10A) [µM] | IC50 ([5]; Homo sapiens, Fibroblast) [µM] | IC50 ([6]; Homo sapiens, MCF-10A) [µM] | T. brucei more sensitive than human cells (selectivity range) [1] | drug concentration that resulted in suppression of proliferative growth in T. brucei (T. brucei SM [7]) [nM] | T. brucei more sensitive than MCF10A [3] [fold] | selectivity index for T. brucei vs MCF10A (Alamar blue) [3] | nucleolar structure (L1C6 marker) ([4]; 3 μM) | cells with an ESB ([4]; 3 μM) | VEX1 signal (ESB marker) ([4]; 3 μM, three hours) | selectivity index for T. brucei vs BJ3 human fibroblasts (Incucyte) [5] | selectivity index for T. brucei vs MCF10A (Incucyte) [6] | reversibility of inhibition of T. brucei proliferation (T. brucei SM [9]) | other results
Cc1ccc(C(=O)Nc2ccc(S(=O)(=O)O)c3cc(S(=O)(=O)O)cc(S(=O)(=O)O)c23)cc1NC(=O)c1cccc(NC(=O)Nc2cccc(C(=O)Nc3cc(C(=O)Nc4ccc(S(=O)(=O)O)c5cc(S(=O)(=O)O)cc(S(=O)(=O)O)c45)ccc3C)c2)c1 [Suramin, suramin] | 0.063 ± 0.005 | 1640 ± 317 | 890 ± 127 | 1260 ± 90 | – | – | – | – | – | – | – | – | – | – | effect on Pol I and Pol II derived precursor transcript levels ([2]; 800 nM, 15 minutes): did not lead to reduced levels of any of these transcripts; nucleolar structure (L1C6 marker) ([4]; 800 nM): did not lead to significant changes in structure of the nucleoli; effect on ESB positive cells ([4]; 800 nM, one to three hours): only a marginal reduction in ESB positive cells; ESB as visualised using epitope tagged VEX1 ([4]; 800 nM, three hours): no specific disintegration of the ESB was observed; IC50 (T. b. rhodesiense): 0.053 µM
CN(C)CCNC(=O)c1cccn2c(=O)c3cc4ccccc4cc3nc12 [BMH-21] | – | – | – | – | 3-10 fold | 300 | 3.4 | (3.4x) | nucleoli fragmenting into multiple foci | 1 ± 1.4% | drastically reduced | (10x) | (4.6x) | – | IC50 [1]: 0.134 ± 0.008 µM; IC50 [3]: 0.46 ± 0.08 µM; IC50 [5]: 1.36 ± 0.22 µM; IC50 [6]: 0.622 ± 0.34 µM; degradation of the RPA2 Pol I subunit [8]: we did not see evidence for degradation of the RPA2 Pol I subunit
C[C@H]1c2cccc(O)c2C(=O)C2=C(O)[C@]3(O)C(=O)C(C(N)=O)=C(O)[C@@H](N(C)C)[C@@H]3[C@@H](O)[C@@H]21 [Doxycycline, doxycycline] | – | 50.7 ± 33.8 | – | – | – | – | – | – | – | – | – | – | – | – | –
Cc1cnc(CNC(=O)c2c(=O)c3ccc(N4CCCN(C)CC4)nc3n3c2sc2ccccc23)cn1 [CX-5461] | 0.279 ± 0.016 | 6.89 ± 4.83 | 9.78 ± 0.79 | 7.84 ± 9.8 | 25-35 fold | 1000 | 25 | (25x) | nucleoli fragmenting into multiple foci | 4.5 ± 0.7% | drastically reduced | (35x) | (28x) | irreversibly | repression of Pol I transcription ([2]; 1 μM, 15 minutes): specific knockdown of Pol I transcripts
CN1CCC[C@H]1CCNC(=O)c1cn2c3c(c(N4CCC(c5cnccn5)C4)c(F)cc3c1=O)Oc1cc3ccccc3cc1-2 (some centres unmarked) [Quarfloxin, quarfloxin] | 0.155 ± 0.009 | 4.44 ± 3.29 | 2.72 ± 0.17 | 6.24 ± 3.87 | 18-40 fold | 300 | 29 | (29x) | nucleoli fragmenting into multiple foci | No cells contained an ESB; also recorded: none of the cells had an ESB | drastically reduced | (18x) | (40x) | irreversibly | VSG221 precursor transcript reduced by ([2]; 1 μM, 15 minutes): 94.5 ± 1.9%; VSG pseudogene transcript reduced by ([2]; 1 μM, 15 minutes): 92.3 ± 1.6%; pre-rRNA Precursor 1 transcript levels reduced by (primer a) ([2]; 1 μM, 15 minutes): 98.5 ± 0.66%; rRNA Precursor 2 decreased by (primer b) ([2]; 1 μM, 15 minutes): 91.3 ± 2.6%; rRNA Precursors 2 and 3 reduced by (primer pair c) ([2]; 1 μM, 15 minutes): 83.4 ± 2.1%; rRNA Precursors 2 and 3 reduced by (primer pair d) ([2]; 1 μM, 15 minutes): 89.5 ± 2.7%; Pol II derived tubulin precursor transcript level ([2]; 1 μM, fifteen minutes): 129 ± 10.3 % normal; ESB positive cells ([4]; 300 nM): 30.5 ± 5%; ESB positive cells ([4]; 1 μM): 7.5 ± 0.7%
